The source of these data is patent US20120101136A1, “5-MEMBERED HETEROARYL DERIVATIVES USED AS SPHINGOSINE 1- PHOSPHATE RECEPTOR AGONISTS” (GLAXO GROUP LIMITED, priority 2009, published 2012).

The assay deals with T1, S1P1 receptor (human Endothelial Differentiation Gene 1 (EDG1)) (Homo sapiens, UniProt P21453).
T1 construct: TEV protease site; Gal4-VP16 transcription factor; expressed in transfected cells; host or cells: Tango GPCR-bla U2OS parental cell line (EDG1-bla/U2OS)
T1 sequence (P21453 whole entry, the tested form may be a part): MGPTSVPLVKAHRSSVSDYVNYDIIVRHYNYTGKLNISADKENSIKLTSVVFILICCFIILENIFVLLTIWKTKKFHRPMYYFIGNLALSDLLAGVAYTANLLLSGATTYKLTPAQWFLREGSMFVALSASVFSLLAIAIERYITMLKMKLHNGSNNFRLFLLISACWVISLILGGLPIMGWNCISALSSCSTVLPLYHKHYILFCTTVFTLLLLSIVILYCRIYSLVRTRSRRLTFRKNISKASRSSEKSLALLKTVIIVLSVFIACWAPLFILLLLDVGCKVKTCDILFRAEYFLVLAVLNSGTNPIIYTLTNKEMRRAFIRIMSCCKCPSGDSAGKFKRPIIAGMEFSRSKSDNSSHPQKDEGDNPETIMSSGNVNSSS
Put plainly: S1P1 Tango Assay - 384 Well Format (EDG1-bla/U2OS cells). It counts as cell-based. The note with it: agonist, beta-lactamase reporter. The procedure:
Recombinant EDG1-bla/U2OS cells (contain the human Endothelial Differentiation Gene 1 (EDG1) linked to a TEV protease site and a Gal4-VP16 transcription factor stably integrated into the Tango GPCR-bla U2OS parental cell line) were harvested from growth medium and passaged into assay medium (Invitrogen Freestyle Expression Medium). The cells were starved for 24 hours at 37° C., 5% CO2, harvested and resuspended in assay medium at a density of ˜200,000 cells/ml.
All test compounds were dissolved in DMSO at a concentration of 10 mM and were prepared in 100% DMSO to provide 10 point dose response curves. Test compounds prepared by Bravo (Velocity 11) were added to wells in columns 2-11 and 13-22; DMSO was added to wells in columns 12 and 23 as unstimulated controls and assay medium was added to wells in columns 1 and 24 as cell-free controls. An S1P1 agonist was added to wells in row 2, columns 2-11 as stimulated controls and test compounds were added to wells in row 2, columns 13-22 and rows 3-15, columns 2-11/13-22 (row 1 and 16 were empty and not used). Compounds in solution were added to the assay plate (Greiner 781090) using an Echo (Labcyte) dose-response program (50 nl/well). The unstimulated and cell-free controls were loaded with 50 nl/well pure DMSO to ensure that the DMSO concentration was constant across the plate for all assays.
50 μl of the cell suspension was added to each well in columns 2-23 of the plate (˜10,000 cells per well). 50 μl of assay medium was added to each well in the cell-free controls (columns 1 and 24). The cells were incubated overnight at 37° C./5% CO2.
10 μl of 6× substrate mixture (LiveBLAzer™-FRET B/G substrate (CCF4-AM) Cat # K1096 from Invitrogen, Inc.) was added to each well using Bravo and the plates incubated at room temperature for 2 h in the dark. The plate was finally read on EnVision using one excitation channel (409 nm) and two emission channels (460 nm and 530 nm).
The blue/green emission ratio (460 nm/530 nm) was calculated for each well, by dividing the background-subtracted Blue emission values by the background-subtracted Green emission values. The dose response curve is based on sigmoidal dose-response model. All ratio data was normalized based upon the maximum emission ratio of positive control and minimum emission ratio of negative control (DMSO) on each plate. The intrinsic activity (IA) of each compound would be the normalized percentage of its maximum response after curve fitting.
One may read the EC50 as the concentration at which the effect is half-maximal. A lower EC50 goes with higher potency in that assay. Turning to `CCc1cc(OCCCCC(=O)O)ccc1-c1noc(-c2ccc(OC(C)C)c(C#N)c2)n1` [Example 31, 5-{[4-(5-{3-cyano-4-[(1-methylethyl)oxy]phenyl}-1,2,4-oxadiazol-3-yl)-3-ethylphenyl]oxy}pentanoic acid], the EC50 was not above 0.1 nM.

In turn, `CCc1cc(OCCCC(=O)O)ccc1-c1noc(-c2ccc(OC(C)C)c(C#N)c2)n1` [Example 32, 4-{[4-(5-{3-cyano-4-[(1-methylethyl)oxy]phenyl}-1,2,4-oxadiazol-3-yl)-3-ethylphenyl]oxy}butanoic acid] showed an EC50 not above 0.1 nM.

`CCc1cc(OCCNC)ccc1-c1noc(-c2ccc(OC(C)C)c(C#N)c2)n1` [Example 33, 5-[3-(2-ethyl-4-{[2-(methylamino)ethyl]oxy}phenyl)-1,2,4-oxadiazol-5-yl]-2-[(1-methylethyl)oxy]benzonitrile] had an EC50 not above 10 nM.

Consider `CCc1cc(OCCCCNC)ccc1-c1noc(-c2ccc(OC(C)C)c(Cl)c2)n1` [Example 34, (4-{[4-(5-{3-chloro-4-[(1-methylethyl)oxy]phenyl}-1,2,4-oxadiazol-3-yl)-3-ethylphenyl]oxy}butyl)methylamine], for which the EC50 was not above 100 nM.

`CCc1cc(OCCCNC)ccc1-c1noc(-c2ccc(OC(C)C)c(Cl)c2)n1` [Example 35, (3-{[4-(5-{3-chloro-4-[(1-methylethyl)oxy]phenyl}-1,2,4-oxadiazol-3-yl)-3-ethylphenyl]oxy}propyl)methylamine] gave an EC50 not above 10 nM.

In turn, `CNCCOc1ccc(-c2noc(-c3ccc(OC(C)C)c(C#N)c3)n2)c(Cl)c1` [Example 36, 5-[3-(2-chloro-4-{[2-(methylamino)ethyl]oxy}phenyl)-1,2,4-oxadiazol-5-yl]-2-[(1-methylethyl)oxy]benzonitrile] had an EC50 not above 1 nM.

`CNCCCOc1ccc(-c2noc(-c3ccc(OC(C)C)c(C#N)c3)n2)c(Cl)c1` [Example 37, 5-[3-(2-chloro-4-{[3-(methylamino)propyl]oxy}phenyl)-1,2,4-oxadiazol-5-yl]-2-[(1-methylethyl)oxy]benzonitrile]: the EC50 was not above 1 nM.

`CCc1cc(OCCCCNC)ccc1-c1noc(-c2ccc(OC(C)C)c(C#N)c2)n1` [Example 38, 5-[3-(2-ethyl-4-{[4-(methylamino)butyl]oxy}phenyl)-1,2,4-oxadiazol-5-yl]-2-[(1-methylethyl)oxy]benzonitrile] had an EC50 not above 10 nM.

`CCc1cc(OCCCNC)ccc1-c1noc(-c2ccc(OC(C)C)c(C#N)c2)n1` [Example 39, 5-[3-(2-ethyl-4-{[3-(methylamino)propyl]oxy}phenyl)-1,2,4-oxadiazol-5-yl]-2-[(1-methylethyl)oxy]benzonitrile]: the EC50 is not above 1 nM.

Compound `CNCCCOc1ccc(-c2noc(-c3ccc(OC(C)C)c(Cl)c3)n2)c(C)c1` [Example 40, (3-{[4-(5-{3-chloro-4-[(1-methylethyl)oxy]phenyl}-1,2,4-oxadiazol-3-yl)-3-methylphenyl]oxy}propyl)methylamine] gave an EC50 not above 10 nM.

In the case of `CCc1cc(OCCCC(=O)O)ccc1-c1nc(-c2ccc(OC(C)C)c(C#N)c2)ns1` [Example 41, 4-{[4-(3-{3-cyano-4-[(1-methylethyl)oxy]phenyl}-1,2,4-thiadiazol-5-yl)-3-ethylphenyl]oxy}butanoic acid], the EC50 is not above 1 nM.

As for `CCc1cc(OCCCC(=O)O)ccc1-c1nsc(-c2ccc(OC(C)C)c(C#N)c2)n1` [Example 42, 4-{[4-(5-{3-cyano-4-[(1-methylethyl)oxy]phenyl}-1,2,4-thiadiazol-3-yl)-3-ethylphenyl]oxy}butanoic acid], the EC50 was not above 10 nM.

Take `CCc1cc(OCCCC(=O)O)ccc1-c1cnc(-c2ccc(OC(C)C)c(C#N)c2)s1` [Example 43, 4-{[4-(2-{3-cyano-4-[(1-methylethyl)oxy]phenyl}-1,3-thiazol-5-yl)-3-ethylphenyl]oxy}butanoic acid]: the concentration giving a half-maximal response (EC50) was not above 1 nM.

For the compound `CCc1cc(OCCCNC)ccc1-c1cnc(-c2ccc(OC(C)C)c(C#N)c2)s1` [Example 44, 5-[5-(2-ethyl-4-{[3-(methylamino)propyl]oxy}phenyl)-1,3-thiazol-2-yl]-2-[(1-methylethyl)oxy]benzonitrile], the EC50 was not above 1000 nM.
